According to patent US20250026724A1, “(1,4,5-TRISUBSTITUTED 1H-PYRAZOL-3-YL)OXY-2-ALKYLTHIOALKYL ACIDS AND -ALKYL ACID DERIVATIVES, SALTS THEREOF AND USE THEREOF AS ACTIVE HERBICIDAL INGREDIENTS” (BAYER AKTIENGESELLSCHAFT, priority 2021, published 2025):

How the values were obtained:
Assay in all cases: Post-emergence herbicidal action, greenhouse pot trial
Format in all cases: in vivo
Lolium rigidum (LOLRI) = details: visual rating after about 3 weeks; for pest or weed control at 320 g/ha: Lolium rigidum, 504 h, read-out: Post-emergence effect at 320 g/ha against LOLRI in %
In short: (§1)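 Greenhouse-grown plants, sown in sandy loam, sprayed at the one-leaf stage (2–3 weeks after sowing) with WP or EC formulations in water plus 0.5% additive, 600 l/ha. Rates of 320 g/ha or lower. Visual rating after about 3 weeks versus untreated controls (100% = dead, 0% = as control).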

[1] = tested on: Digitaria sanguinalis (DIGSA); details: visual rating after about 3 weeks; for pest or weed control at 320 g/ha: Digitaria sanguinalis, 504 h, read-out: Post-emergence effect at 320 g/ha against DIGSA in %
In short: as §1

Veronica persica (VERPE) = details: visual rating after about 3 weeks; for pest or weed control at 320 g/ha: Veronica persica, 504 h, read-out: Post-emergence effect at 320 g/ha against VERPE in %
In short: as §1

[2] = tested on: Alopecurus myosuroides (ALOMY); details: visual rating after about 3 weeks
In short: as §1

Viola tricolor (VIOTR) = details: for pest or weed control at 20 g/ha / pest or weed control at 80 g/ha / pest or weed control at 320 g/ha: Viola tricolor, 504 h, read-out: Post-emergence effect against VIOTR
In short: as §1

Avena fatua (AVEFA) = details: visual rating after about 3 weeks; for pest or weed control at 320 g/ha: Avena fatua, 504 h, read-out: Post-emergence effect at 320 g/ha against AVEFA in %
In short: as §1

Bassia scoparia (KCHSC) = details: for pest or weed control at 80 g/ha / pest or weed control at 320 g/ha: Bassia scoparia, 504 h, read-out: Post-emergence effect against KCHSC
In short: as §1

[3] = tested on: Echinochloa crus-galli (ECHCG); details: visual rating after about 3 weeks; for pest or weed control at 320 g/ha: Echinochloa crus-galli, 504 h, read-out: Post-emergence effect at 320 g/ha against ECHCG in %
In short: as §1

[4] = tested on: Polygonum convolvulus (POLCO); details: Fallopia convolvulus, 504 h, visual rating after about 3 weeks; for pest or weed control at 80 g/ha: read-out: Post-emergence effect at 80 g/ha against POLCO in %; for pest or weed control at 320 g/ha: read-out: Post-emergence effect at 320 g/ha against POLCO in %
In short: as §1

[5] = tested on: Abutilon theophrasti (ABUTH); details: visual rating after about 3 weeks; for pest or weed control at 80 g/ha / pest or weed control at 320 g/ha: Abutilon theophrasti, 504 h; for pest or weed control at 80 g/ha: read-out: Post-emergence effect at 80 g/ha against ABUTH in %; for pest or weed control at 320 g/ha: read-out: Post-emergence effect at 320 g/ha against ABUTH in %
In short: as §1

Setaria viridis (SETVI) = details: Setaria viridis, 504 h, 320 g/ha, visual rating after about 3 weeks, read-out: Post-emergence effect at 320 g/ha against SETVI in %
In short: as §1

[6] = tested on: Amaranthus retroflexus (AMARE); details: visual rating after about 3 weeks; for pest or weed control at 80 g/ha / pest or weed control at 320 g/ha: Amaranthus retroflexus, 504 h; for pest or weed control at 80 g/ha: read-out: Post-emergence effect at 80 g/ha against AMARE in %; for pest or weed control at 320 g/ha: read-out: Post-emergence effect at 320 g/ha against AMARE in %
In short: as §1

[7] = tested on: Matricaria inodora (MATIN); details: Tripleurospermum inodorum, 504 h, visual rating after about 3 weeks; for pest or weed control at 80 g/ha: read-out: Post-emergence effect at 80 g/ha against MATIN in %; for pest or weed control at 320 g/ha: read-out: Post-emergence effect at 320 g/ha against MATIN in %
In short: as §1

[8] = tested on: Pharbitis purpurea (PHBPU); details: visual rating after about 3 weeks; for pest or weed control at 320 g/ha: read-out: Post-emergence effect at 320 g/ha against PHBPU in %
In short: as §1

Structure (SMILES)	Post-emergence effect at 80 g/ha against DIGSA in % [1] [%]	Post-emergence effect at 80 g/ha against VERPE in % (Veronica persica (VERPE)) [%]	pest or weed control at 320 g/ha (Veronica persica (VERPE)) [%]	pest or weed control at 320 g/ha (Avena fatua (AVEFA)) [%]	pest or weed control at 80 g/ha (Bassia scoparia (KCHSC)) [%]	pest or weed control at 320 g/ha (Bassia scoparia (KCHSC)) [%]	pest or weed control at 80 g/ha [4] [%]	pest or weed control at 320 g/ha [4] [%]	pest or weed control at 80 g/ha [5] [%]	pest or weed control at 320 g/ha [5] [%]	pest or weed control at 320 g/ha (Setaria viridis (SETVI)) [%]	pest or weed control at 80 g/ha [6] [%]	pest or weed control at 320 g/ha [6] [%]	pest or weed control at 20 g/ha (Viola tricolor (VIOTR)) [%]	pest or weed control at 80 g/ha (Viola tricolor (VIOTR)) [%]	pest or weed control at 320 g/ha (Viola tricolor (VIOTR); 320 g/ha) [%]	pest or weed control at 80 g/ha [7] [%]	pest or weed control at 320 g/ha [7] [%]	pest or weed control at 320 g/ha ([8]; Ipomoea purpurea, 504 h) [%]	pest or weed control at 320 g/ha ([3]; 320 g/ha) [%]	further results
CCOC(=O)C(Oc1nn(-c2ccccc2F)c(-c2ccc(F)nc2)c1Br)SC (single isomer, unassigned) [Example I-40]	90	80	80	90	90	90															Post-emergence effect at 20 g/ha against LOLRI in % (Lolium rigidum (LOLRI); 20 g/ha): 80%; Post-emergence effect at 80 g/ha against LOLRI in % (Lolium rigidum (LOLRI); 80 g/ha): 80%; Post-emergence effect at 320 g/ha against LOLRI in % (Lolium rigidum (LOLRI); 320 g/ha): 90%; Post-emergence action at 20 g/ha against DIGSA in % ([1]; 20 g/ha): 90%; Post-emergence effect at 320 g/ha against DIGSA in % ([1]; 320 g/ha): 90%; Post-emergence effect at 20 g/ha against VERPE in % (Veronica persica (VERPE); 20 g/ha): 80%; Post-emergence effect at 20 g/ha against ALOMY in % ([2]; 20 g/ha): 80%; Post-emergence effect at 80 g/ha against ALOMY in % ([2]; 80 g/ha): 80%; Post-emergence effect at 320 g/ha against ALOMY in % ([2]; 320 g/ha): 80%; Post-emergence effect against VIOTR (Viola tricolor (VIOTR); 320 g/ha): 80%; Post-emergence effect at 20 g/ha against AVEFA in % (Avena fatua (AVEFA); 20 g/ha): 80%; Post-emergence effect at 80 g/ha against AVEFA in % (Avena fatua (AVEFA); 80 g/ha): 90%; Post-emergence effect at 20 g/ha against KCHSC in % (Bassia scoparia (KCHSC); 20 g/ha, visual rating after about 3 weeks): 80%; Post-emergence effect at 20 g/ha against ECHCG in % ([3]; 20 g/ha): 80%; Post-emergence effect at 80 g/ha against ECHCG in % ([3]; 80 g/ha): 80%; Post-emergence effect at 320 g/ha against ECHCG in % ([3]; 320 g/ha): 90%
CCOC(=O)C(Oc1nn(-c2ncccc2F)c(-c2cncc(F)c2)c1C1CC1)SC (stereo not shown) [Example I-41]			80	100		90	80	90	90	90	90	90	90	90	90	90	80	90	80	90	Post-emergence action at 20 g/ha against ABUTH in % ([5]; 20 g/ha): 80%; pest or weed control at 320 g/ha ([2]; Alopecurus myosuroides, 504 h, 320 g/ha, read-out: Post-emergence effect at 320 g/ha against ALOMY in %): 80%; Post-emergence effect at 20 g/ha against AMARE in % ([6]; 20 g/ha): 80%
CSC(Oc1nn(-c2ncccc2F)c(-c2cncc(F)c2)c1Br)C(=O)O (stereo not shown) [Example I-42]	80		80	100	90	90	80	90	80	90	90	90	90	90	90	90	80	90	90	90	pest or weed control at 320 g/ha (Lolium rigidum (LOLRI); 320 g/ha): 90%; pest or weed control at 320 g/ha ([1]; 320 g/ha): 90%; Post-emergence effect at 20 g/ha against PHBPU in % ([8]; 20 g/ha): 80%; pest or weed control at 80 g/ha ([8]; Ipomoea purpurea, 504 h, 80 g/ha, read-out: Post-emergence effect at 80 g/ha against PHBPU in %): 80%
COC(=O)C(Oc1nn(-c2ncccc2F)c(-c2cncc(F)c2)c1C1CC1)SC (stereo not shown) [Example I-66]		90	90	80		90	80	80	80	90	80	90	90	90	90	90	80	90	90	90	pest or weed control at 320 g/ha (Lolium rigidum (LOLRI); 320 g/ha): 90%; pest or weed control at 320 g/ha ([1]; 320 g/ha): 80%
